In publication PMC5834492, “Antimycobacterial drug discovery using Mycobacteria-infected amoebae identifies anti-infectives and new molecular targets” (Scientific Reports, 2018):
Read-outs that look alike come from different tables or passages of the source.

What was measured:
M. marinum luxCDABE = type: cell-based, Mycobacterium marinum; conditions: 10 µM
M. marinum GFP = type: cell-based, Mycobacterium marinum; conditions: 10 µM; antibiotic assay
[1] = test system: M. marinum in A. castellanii; type: cell-based, Mycobacterium marinum; conditions: 10 µM
[2] = test system: M. marinum in BV2 microglial cells; type: cell-based, Mycobacterium marinum; conditions: for BV2 / M. marinum normalised growth, control=1.00, mean / hit in BV2/M. marinum assay True/False: 10 µM
D. discoideum GFP-ABD = conditions: 10 µM
Mtb H37Rv in THP-1 = test system: Mtb H37Rv in THP-1; set-up: method as in Sorrentino et al, 2015; conditions: ref Sorrentino et al, 2015, cited from earlier work; for Extracellular MIC90/ Inracellular MIC90: ratio
Mtb H37Rv = test system: Mtb H37Rv; set-up: method as in Sorrentino et al, 2015; conditions: ref Sorrentino et al, 2015; cited from earlier work
[3] = THP1 / Mtb H37Rv infection assay

Row | SMILES | M. marinum luxCDABE normalised growth, control = 1.00, mean (M. marinum luxCDABE) | M. marinum luxCDABE normalised growth, control=1.00, mean (M. marinum luxCDABE) | M. marinum GFP normalised growth, control=1.00, mean (M. marinum GFP) | A. castellanii / M. marinum normalised growth, control=1.00, mean [1] | Hits A. castellanii/M. marinum assay True/False [1] | BV2 / M. marinum normalised growth, control=1.00, mean [2] | hit in BV2/M. marinum assay True/False [2] | D. discoideum GFP-ABD normalised growth, control=1.00, mean (D. discoideum GFP-ABD) | Intracelullar MIC90 in THP-1 (Mtb H37Rv in THP-1; Mtb H37Rv-infected THP1 cells) [µM] | Intracelullar MIC90 in THP-1 (Mtb H37Rv in THP-1; [3]) [µM] | Extracellular MIC90/ Inracellular MIC90 (Mtb H37Rv in THP-1) | Extracellular MIC90 (Mtb H37Rv) [µM] | IC50 [2] [µM] | D. discoideum GFP-ABD normalised growth, control = 1.00, mean (D. discoideum GFP-ABD) | A. castellanii/M. marinum normalised growth, control = 1.00, mean [1]
1 | O=C(NCc1ccc(Oc2ccccc2)cc1)c1c(C(F)(F)F)nc2ccccn12 [GSK1829676A] | 0,00 | 0.00 | 0.0321 | 0.56 | FALSE | 0.35 | TRUE | 0.75 | 0.21 | 0.21 | 0.95 | 0.2 |  |  | 
2 | Cc1ccc2nc(C)c(C(=O)NCC(C)C)n2c1 [GSK1829816A] |  | 0.08 | 0.20 | 1.01 |  | 0.61 |  | 1.03 |  | 16.65 | 0.46 | 7.7 | 4.09 |  | 
3 | COc1cc(C(F)(F)F)nc2ccc(C)c(N)c12 [GSK345724A] |  | 0.31 | 0.29 | 1.16 |  | 0.87 |  | 0.95 |  | 1.85 | 2.86 | 5.3 | 8.6 |  | 
4 | Br.CC1(C)NC(N)=NC(=N)N1OCCCOc1ccc(Cl)cc1Cl [BRL-51091AM] |  | 0.00 | 1.23 | 1.95 |  | 0.51 |  | 0.97 |  | 5.55 | 0.63 | 3.5 | 1.8 |  | 
5 | Cc1nnc(NCc2cccc(Cl)c2)c2ccccc12 [GSK1302651A] |  | 0.00 | 0.56 | 1.01 |  | 0.87 |  | 0.97 |  | 5.55 | 1.06 | 5.9 | 4.41 |  | 
6 | C=CCNc1nc(SC)nc2ccccc12 [GSK353071A] |  | 0.095 | 0.09 | 0.77 |  | 0.53 |  | 0.92 |  | 1.85 | 1.73 | 3.2 | 4.77 |  | 
7 | Cc1ccc2nc(C(F)(F)F)c(C(=O)NCc3ccc4c(c3)OCO4)n2c1 [GSK1829732A] | 0,00 | 0.00 | 0.06 | 0.56 | FALSE | 0.34 | TRUE | 1.00 | 1.85 | 1.85 | 0.59 | 1.1 | 3.52 | 1,00 | 
8 | Br.CC1(C)N=C(N)N=C(N)N1OCCc1ccc2ccccc2c1 [BRL-8088SA] |  | 0.00 | 0.05 | 2.26 |  | 0.52 |  | 0.71 |  | 5.55 | 0.41 | 2.3 | 2.81 |  | 
9 | CCOc1ccc(-c2nc(CNCCc3ccc(F)cc3)cs2)cc1.O=C(O)C(=O)O [GSK1759150A] |  | 0.37 | 0.75 | 0.82 |  | 0.73 |  | 0.30 |  | 16.65 | 0.07 | 1.1 | 4.31 |  | 
10 | CNc1nc(SCC(=O)N(C)Cc2ccc(Cl)s2)nc2ccccc12 [GSK1925843A] | 0,00 | 0.00 | 0.70 | 1.12 | FALSE | 0.43 | TRUE | 1.10 | 16.65 | 16.65 | 0.34 | 5.6 | 3.83 | 1,10 | 1,12
11 | Clc1ccc(CCNc2cc(-c3ccccc3)nc3ncnn23)cc1 [GSK1955236A] |  | 0.00 | 0.66 | 1.32 |  | 0.80 |  | 0.93 |  | 1.85 | 0.81 | 1.5 | 5.69 |  | 
12 | Br.CCc1ccccc1OCCCON1C(=N)N=C(N)NC1(C)C [BRL-10143SA] |  | 0.00 | 0.04 | 2.62 |  | 0.55 |  | 0.53 |  | 1.85 | 1.73 | 3.2 | 4.19 |  | 
13 | COc1ccc(CCNC(=O)c2c(C)nc3ccccn23)cc1 [GSK762874A] |  | 0.00 | 0.08 | 0.70 |  | 0.59 |  | 1.04 |  | 5.55 | 0.56 | 3.1 | 3.64 |  | 
14 | Cc1ccc2nc(C(F)(F)F)c(C(=O)NCc3cc(Cl)cc(Cl)c3)n2c1 [GSK1829736A] | 0,00 | 0.00 | 0.04 | 0.60 | FALSE | 0.41 | TRUE | 0.93 | 0.61 | 0.61 | 1.47 | 0.9 | 2.21 |  | 
15 | Nc1cc(OCc2ccccc2)ccc1Nc1ccccc1 [GV187303X] |  | 0.90 | 0.71 | 1.05 |  | 0.55 |  | 0.89 |  | 50 | 0.19 | 9.4 | 5.44 |  | 
16 | Cc1ccc2nc(C)c(C(=O)NCc3ccco3)n2c1 [GSK1829819A] | 0,00 | 0.00 | 0.08 | 0.66 | FALSE | 0.37 | TRUE | 1.08 | 0.61 | 0.61 | 2.13 | 1.3 | 3.9 | 1,08 | 
17 | COc1ccc2nc(C)cc(OCC(=O)Nc3cc(C)cc(C)c3)c2c1 [GSK749336A] |  | 0.00 | 0.14 | 0.58 |  | 0.63 |  | 0.67 |  | 5.55 | 0.05 | 0.3 | 7.32 |  | 
18 | CSc1ccccc1C(=O)Nc1nc(-c2ccccn2)cs1 [GSK921190A] |  | 0.10 | 0.45 | 1.20 |  | 0.94 |  | 0.94 |  | 16.65 | 0.1 | 1.7 | 4.08 |  | 
